{"source": "patent US20260375265A1", "about": "“COMPOSITION FOR ALLEVIATING SKIN PIGMENTATION” (LG H & H CO., LTD., priority 2023, published 2026)", "key": {"ASCL2": {"test_system": "ASCL2", "experiment": "qPCR of ASCL2 mRNA expression in a-MSH-treated B16F10 cells", "type": "cell-based, mouse", "settings": "B16F10, 10 nM a-MSH plus substance, one day, appropriate concentration; FIG. 3", "protocol": "(§1) Screening was performed for substances that influence the expression of genes associated with spot pigmentation among various substances having the skin-improving efficacy. Changes in the expression of genes associated with spot pigmentation were examined in cells where melanin synthesis was increased by a-MSH, and substances that restored the expression to the level before a-MSH treatment were selected.\n(§2) Mouse melanoma cells (B16F10; CRL-6475) were purchased from ATCC for use. The purchased cells were cultured in a 37 °C/5% CO2 incubator using a medium prepared by supplementing Dulbecco's Modified Eagle Medium (DMEM-GIBCO) with 10% fetal bovine serum (FBS) and 1% penicillin/streptomycin.\nTo analyze the efficacy on changes in the mRNA expression of genes associated with skin spot pigmentation, mouse melanoma cells were seeded at […] cells/well in 6-well plates and cultured in a 37 °C/5% CO2 incubator for one day. After replacing the medium with a fresh medium, 10 nM α-MSH was treated, and substances were added to the medium at appropriate concentrations and cultured for one day under the same conditions. […] The expression level of each gene was analyzed by performing qPCR using synthesized cDNA and taqman probe (assay ID: ASCL2-Mm01268891_m1, PPARGC1B-Mm00504730_m1, TP63-Hs00978349_m1)."}, "dark skin tone": {"test_system": "dark skin tone", "experiment": "Human application trial: customized prescription for high-risk group of dark skin tone", "type": "in vivo", "settings": "twice daily, four weeks", "protocol": "Accordingly, it was aimed to provide substances capable of increasing the improvement efficiency of dark skin tone according to the risk level of developing dark skin tone.\n(§3) After receiving approval from the Institutional Review Board (IRB, Korea) (LG-SKEV-2022-09-A), the study was conducted in accordance with the standard operating guidelines and clinical trial standards of the Institutional Review Board of LG Household & Health Care Co., Ltd. Nine healthy adult subjects aged 20-50 with no apparent skin abnormalities were selected.\nBased on the genetic polymorphic markers associated with skin tone brightness in Table 2, subjects were classified into low-risk and high-risk groups according to their risk level of developing dark skin tone as follows. • Risk scores (the sum of each genotype multiplied by its respective effect size (β)) for the five genetic markers were less than −0.193→low-risk group (n=4). • Risk scores (the sum of each genotype multiplied by its respective effect size (β)) for the five genetic markers were −0.193 or higher→high-risk group (n=5).\nThe same as in Example 4-2 […]\nPIE's Janus3 was used to photograph the front and side of the face under normal, polarized, and UV light. […] The pigmentation improvement was calculated by determining the increase in the skin tone brightness values after four weeks of use compared to the skin tone brightness values before use."}, "[1]": {"test_system": "scattered dark spots on skin", "experiment": "Human application trial: customized prescription for high-risk group of scattered dark spots", "type": "in vivo", "settings": "twice daily, four weeks", "protocol": "Accordingly, it was aimed to provide specific substances capable of increasing the improvement efficiency of scattered dark spots according to the risk level of developing scattered dark spots on skin, dark skin tone, and/or spot pigmentation.\nas §3, with “Ten” for “Nine”, “selected. […]” for “selected.”\nPIE's Janus3 was used to photograph the front and side of the face under normal, polarized, and UV light. […] The pigmentation improvement rate (%) was calculated by determining the percentage reduction in the pigmentation values after four weeks of use compared to the polarized pigmentation values before use."}, "PPARGC1B [2]": {"test_system": "PPARGC1B", "experiment": "qPCR of PPARGC1B mRNA expression in a-MSH-treated B16F10 cells", "type": "cell-based, mouse", "settings": "B16F10, 10 nM a-MSH plus substance, one day, appropriate concentration; FIG. 3", "protocol": "as §1, §2\nTo analyze the efficacy on changes in the mRNA expression of genes associated with skin spot pigmentation, mouse melanoma cells were seeded at […] cells/well in 6-well plates and cultured in a 37 °C/5% CO2 incubator for one day. After replacing the medium with a fresh medium, 10 nM α-MSH was treated, and substances were added to the medium at appropriate concentrations and cultured for one day under the same conditions. Thereafter, total RNA was obtained using AccuPrep Universal RNA Extraction Kit (Bioneer, K-3140), and cDNA was synthesized using AccuPower® RocketScript™ Cycle (Bioneer, K-2202). The expression level of each gene was analyzed by performing qPCR using synthesized cDNA and taqman probe (assay ID: ASCL2-Mm01268891_m1, PPARGC1B-Mm00504730_m1, TP63-Hs00978349_m1)."}, "mouse melanoma cells": {"test_system": "mouse melanoma cells", "experiment": "Inhibition of melanin production increased by UVB (scattered dark spots)", "type": "cell-based", "settings": "light or radiation study, 48 h, 25 ppm DIPA alone, UVB 30 mJ/cm^2, two days, FIG. 4, read-out: reduction of melanin production (Y)", "protocol": "In detail, mouse melanoma cells were seeded at 2*10^5 cells/well in 6-well plates and cultured in a 37 °C/5% CO2 incubator for one day, followed by irradiation with 30 mJ/cm^2 of UVB (312 nm). Each of media comprising appropriate concentrations and combinations of substances was added and cultured again in a 37 °C/5% CO2 incubator for two days to determine whether or not the substances inhibited the melanin production increased by UVB. Cells attached to the plates were collected in PBS and centrifuged to obtain cell pellets. The cell pellets were visually inspected and photographed. The cell pellets were dissolved in a 1 N NaOH (sodium hydroxide) solution comprising 10% dimethyl sulfoxide (DMSO) at 80 °C for 10 minutes, and placed in a 96-well plate, and absorbance at 405 nm was measured using an Epoch (Biotek) instrument. Melanin was quantified using the measured absorbance and normalized to the sample protein concentration to determine melanin concentration. The inhibition rate of melanin production of the sample was calculated as a ratio of the melanin concentration of the sample treatment group with respect to the melanin concentration increased by UVB.\nE=(X+Y)−(X*Y/100) Colby equation"}, "RAB11FIP2": {"test_system": "RAB11FIP2", "experiment": "qPCR of RAB11FIP2 mRNA expression in UVB-irradiated mouse melanoma cells", "type": "cell-based", "settings": "B16F10, UVB 30 mJ/cm^2 (312 nm), substance one day, appropriate concentration; FIG. 1; UVB alone decreased", "protocol": "as §1, with “scattered dark spots on skin” for “spot pigmentation”, “having” for “having the”, “UVB exposure,” for “a-MSH,”, “UVB exposure” for “a-MSH treatment”\nas §2\nTo analyze the efficacy on changes in the mRNA expression of genes associated with scattered dark spots on skin, mouse melanoma cells were seeded at 2*10^5 cells/well in 6-well plates and cultured in a 37 °C/5% CO2 incubator for one day. After replacing the medium with PBS, 30 mJ/cm^2 of UVB (312 nm) was irradiated using an RMX 3W (Vilber Lourmat) instrument. Substances were added to the medium at appropriate concentrations and cultured for one day under the same conditions. […] The expression level of each gene was analyzed by performing qPCR using synthesized cDNA and taqman probe (assay ID: AKAP1-Mm00501539_m1, RAB11FIP2-Mm01261268_m1, PPARGC1B-Mm00504730_m1)."}, "[3]": {"settings": "general description; very acidic; concentration not given; cited from earlier work"}, "PPARGC1B [4]": {"test_system": "PPARGC1B", "experiment": "qPCR of PPARGC1B mRNA expression in UVB-irradiated mouse melanoma cells", "type": "cell-based", "settings": "B16F10, UVB 30 mJ/cm^2 (312 nm), substance one day, appropriate concentration; FIG. 1; UVB alone decreased", "protocol": "as §1, with “scattered dark spots on skin” for “spot pigmentation”, “having” for “having the”, “UVB exposure,” for “a-MSH,”, “UVB exposure” for “a-MSH treatment”\nas §2\nTo analyze the efficacy on changes in the mRNA expression of genes associated with scattered dark spots on skin, mouse melanoma cells were seeded at 2*10^5 cells/well in 6-well plates and cultured in a 37 °C/5% CO2 incubator for one day. After replacing the medium with PBS, 30 mJ/cm^2 of UVB (312 nm) was irradiated using an RMX 3W (Vilber Lourmat) instrument. Substances were added to the medium at appropriate concentrations and cultured for one day under the same conditions. Thereafter, total RNA was obtained using AccuPrep Universal RNA Extraction Kit (Bioneer, K-3140), and cDNA was synthesized using AccuPower® RocketScript Cycle (Bioneer, K-2202). The expression level of each gene was analyzed by performing qPCR using synthesized cDNA and taqman probe (assay ID: AKAP1-Mm00501539_m1, RAB11FIP2-Mm01261268_m1, PPARGC1B-Mm00504730_m1)."}, "[5]": {"settings": "general description; cited from earlier work"}, "KITLG": {"test_system": "KITLG", "experiment": "qPCR of KITLG mRNA expression in UVB-irradiated human keratinocytes (HaCaT)", "type": "cell-based", "settings": "UVB 30 mJ/cm^2 (312 nm), substance one day, appropriate concentration, FIG. 2, UVB alone increased", "protocol": "as §1, with “dark skin tone” for “spot pigmentation”, “having” for “having the”\nTo analyze the efficacy on changes in the mRNA expression of genes associated with dark skin tone, RT-qPCR experiment was conducted. Cells were cultured in a 37 °C/5% CO2 incubator for one day. To assess the change of KITLG expression by UVB, the medium of human keratinocytes (HaCaT) was replaced with PBS, and 30 mJ/cm^2 of UVB (312 nm) was irradiated using an RMX 3W (Vilber Lourmat) instrument. The medium was replaced with a fresh medium and cultured for one day. To assess the change in KITLG expression by treatment with substances, the cells were treated with appropriate concentrations of substances along with a fresh medium and cultured for one day. […] The expression level of each gene was analyzed by performing qPCR using synthesized cDNA and taqman probe (assay ID: OCA2-Mm00498969_m1, BNC2-Mm00556284_m1, RAB32-Mm00458960_m1, KITLG-Hs00241497_m1)."}, "[6]": {"settings": "8% vitamin C essence, high-risk group (n=5)"}}, "data": [{"compound": "tocopherol", "values": [{"measurement": "change of ASCL2 expression", "setting": "ASCL2", "value": "decreasing"}]}, {"compound": "O=C1O[C@H]([C@@H](O)CO)C(O)=C1O", "note": "[ascorbic acid]", "values": [{"measurement": "pigmentation improvement in the high-risk group", "setting": "dark skin tone; [6]", "value": "did not improve pigmentation"}, {"measurement": "pigmentation improvement in the low-risk group", "setting": "dark skin tone; low-risk group (n=4), FIGS. 12, 13", "value": "slightly improved pigmentation"}, {"measurement": "pigmentation improvement in the high-risk group", "setting": "[1]; [6]", "value": "did not improve pigmentation"}, {"measurement": "pigmentation improvement in the low-risk group", "setting": "[1]; low-risk group (n=5), FIGS. 10, 11", "value": "did not improve pigmentation"}, {"measurement": "change of PPARGC1B expression", "setting": "PPARGC1B [2]", "value": "increased"}]}, {"compound": "CC(C)OC(=O)CCCCC(=O)OC(C)C", "note": "[diisopropyl adipate (DIPA), diisopropyl adipate]", "values": [{"measurement": "inhibition at 25 ppm", "setting": "mouse melanoma cells", "value": "~1.5", "unit": "%"}, {"measurement": "change of RAB11FIP2 expression", "setting": "RAB11FIP2", "value": "increasing"}]}, {"compound": "O=C(O)c1ccccc1O", "note": "[salicylic acid, reference compound]", "values": [{"measurement": "pH", "setting": "[3]", "value": 2.4}, {"measurement": "change of PPARGC1B expression", "setting": "PPARGC1B [4]", "value": "increased"}]}, {"compound": "NC(=O)c1cccnc1", "note": "[niacinamide, reference compound]", "values": [{"measurement": "solubility in water", "setting": "[5]", "value": "dissolves well in water"}, {"measurement": "change of PPARGC1B expression", "setting": "PPARGC1B [4]", "value": "increased"}]}, {"compound": "O=c1cc(-c2ccccc2)oc2cc(O)cc(O)c12", "note": "[chrysin, 5,7-dihydroxyflavone]", "values": [{"measurement": "change of KITLG expression", "setting": "KITLG", "value": "decreasing"}]}]}
